# Values of other authors in patent US20060243184A1, “Use of waste nitrogen from air separation units for blanketing cargo and ballast tanks” (Chevron U.S.A. Inc., priority 2003, published 2006).
# Details: @ 20° C.
row,Structure (SMILES),Water Solubility
1,CCS [Ethylmercaptan],1.3%
2,CS [Methylmercaptan],2.4%
3,CCCS [Propylmercaptan],Low
